Assay results reported in PMC3583578 (Oncology Reports, 2012).

Columns and labels:
[1] = test system: TNFα-induced NF-κB activation; test: Luciferase-based in cellulo NF-κB reporter assay; assay type: cell-based, human; details: K562 cells after transfection
[2] = test system: 26S protease (chymotrypsin, trypsin- and caspase-like activities); details: three proteolytic activities, dose-dependent; cited from earlier work

Structure (SMILES) | Cytotoxicity at concentrations which inhibited NF-κB activation (in words) [1] | 26S protease inhibition activity (in words) [2]
COc1cccc(/C=C/C(=O)c2ccccc2O)c1OC [Chalcone 16, 2,3-Dimethoxy-2′-hydroxychalcone] | cytotoxic | –
O=C(/C=C/c1ccccc1)c1ccc(O)cc1 [Chalcone 7, 4′-Hydroxychalcone] | – | inhibition activity
